Experimental data as given in patent publication EP0272791A2 (priority 1986, dated 1988).
Values joined by “and” are separate entries in the source; they are usually repeats but may differ in a detail not shown here. Equal entries are not always repeated. “Also recorded” adds a separate entry of the source. Where two headings read alike, the source gives them in different places.

Experiments:
CLL [1] = conditions: for Treated patients, Sensitive / Untreated patients, Sensitive: sensitive: < 30% cell survival
ANLL = experiment: differential staining cytotoxicity assay (DiSC), fresh tumor specimens; assay type: cell-based, human; conditions: for % of all specimens tested which were "sensitive" in vitro (< 30% cell survival): dexamethasone 0.4, cytarabine 3.3, vincristine […] continuous 4-day exposure, mechlorethamine 3.5, doxorubicin 1.67 μg/ml 1-hour exposure
ALL = conditions: for Treated patients, Resistant / Untreated patients, Resistant / Treated patients, Sensitive / Untreated patients, Sensitive: No. of patients; for Treated patients, Resistant / Untreated patients, Resistant: resistant: > 30% cell survival; for Treated patients, Sensitive / Untreated patients, Sensitive: sensitive: < 30% cell survival; for in vitro activity (in words): active = < 30% cell survival, concentrations of Table 1; for % of all specimens tested which were "sensitive" in vitro (< 30% cell survival): dexamethasone 0.4, cytarabine 3.3, vincristine […] continuous 4-day exposure, mechlorethamine 3.5, doxorubicin 1.67 μg/ml 1-hour exposure
[2] = tested on: non-Hodgkin's lymphoma, multiple myeloma, and blast crisis CML; conditions: data not shown; neoplasms considered together
CML-blast crisis = experiment: differential staining cytotoxicity assay (DiSC), fresh tumor specimens; conditions: patient CML-BC, 11/09/82 before and 12/14/82 after V + P
[3] = tested on: Non-Small Cell Lung Cancer; experiment: as above; assay type: cell-based, human; conditions: active = < 30% cell survival; concentrations of Table 1
Small Cell Lung Cancer = experiment: as above; assay type: cell-based, human; conditions: active = < 30% cell survival; concentrations of Table 1
tumor cell specimens = experiment: differential staining cytotoxicity assay (DiSC), general statements on drug exposure; assay type: cell-based, human; conditions: for activity in the assay at a 1-hour exposure (in words): must be tested at a continuous exposure
multiple myeloma = experiment: differential staining cytotoxicity assay (DiSC), fresh tumor specimens; conditions: metachronous assays, no intervening therapy, patient MM-B, two dates
CLL [4] = experiment: cells; conditions: Homo sapiens, read-out: average % cell survival in vitro, Vincristine 0.08 µg/ml, continuous exposure; metachronous assays, no intervening therapy
Assorted solid tumors = experiment: differential staining cytotoxicity assay (DiSC), fresh tumor specimens; assay type: cell-based, human; conditions: for % of all specimens tested which were "sensitive" in vitro (< 30% cell survival): dexamethasone 0.4 μg/ml, cytarabine […], continuous 4-day exposure
[5] = Doxorubicin 1.67 µg/ml, 1-hr exposure
[6] = cells from relapsed patients compared with untreated patients
[7] = active = < 30% cell survival, concentrations of Table 1
[8] = Vincristine 0.08 µg/ml, continuous exposure, metachronous assays, no intervening therapy
[9] = Vincristine 0.08 µg/ml, continuous 4-day exposure
[10] = Cytarabine 1.0 µg/ml, continuous 4-day exposure
[11] = No. of patients, Dexamethasone 0.4 µg/ml, continuous 4-day exposure, resistant: > 30% cell survival
[12] = No. of patients, Dexamethasone 0.4 µg/ml, continuous 4-day exposure
[13] = No. of patients, Dexamethasone 4.0 µg/ml, continuous 4-day exposure, resistant: > 30% cell survival
[14] = No. of patients, Dexamethasone 4.0 µg/ml, continuous 4-day exposure
[15] = Dexamethasone 0.4 µg/ml, continuous 4-day exposure
[16] = Dexamethasone 4.0 µg/ml, continuous 4-day exposure

SMILES: COc1cccc2c1C(=O)c1c(O)c3c(c(O)c1C2=O)C[C@@](O)(C(=O)CO)C[C@@H]3O[C@H]1C[C@H](N)[C@H](O)[C@H](C)O1 [Doxorubicin, doxorubicin]
- resistance in vitro, previously treated vs previously untreated patients (in words) (CLL [1]; prior treatment with alkylating agents (usually chlorambucil or cyclophosphamide) with or without prednisone): significantly more resistant
- % of all specimens tested which were "sensitive" in vitro (< 30% cell survival) (ANLL): 48% (27)
- Treated patients, Resistant (ALL; [5]): 7
- Untreated patients, Resistant (ALL; [5]): 1
- Treated patients, Sensitive (ALL; [5]): 4
- Untreated patients, Sensitive (ALL; [5]): 10
- in vitro activity (in words) (ALL): somewhat more sensitive than ANLL
- resistance in the assay, relapsed (treated) vs untreated patients (in words) (ALL; [6]): significantly more resistant
- % of all specimens tested which were "sensitive" in vitro (< 30% cell survival) (ALL): 72% (18)
- resistance in vitro, previously treated vs previously untreated patients (in words) [2]: significantly more resistant
- % cell survival (CML-blast crisis; Doxorubicin 1.6 μg/ml, 1 hour exposure, 60 min): 86% and 59%

SMILES: N.N.[Cl][Pt][Cl] [Cisplatin, cisplatin]
- in vitro activity (in words) [3]: most active agent tested; also recorded: moderate activity
- in vitro activity (in words) (CLL [1]; [7]): completely refractory
- in vitro activity (in words) (Small Cell Lung Cancer): high activity

SMILES: CC[C@]1(O)C[C@H]2CN(CCc3c([nH]c4ccccc34)[C@@](C(=O)OC)(c3cc4c(cc3OC)N(C=O)[C@H]3[C@@](O)(C(=O)OC)[C@H](OC(C)=O)[C@]5(CC)C=CCN6CC[C@]43[C@@H]65)C2)C1 [Vincristine, vincristine]
- average % cell survival in vitro (CLL [1]; [8]): 48%
- activity in the assay at a 1-hour exposure (in words) (tumor cell specimens): not active
- % of all specimens tested which were "sensitive" in vitro (< 30% cell survival) (ANLL): 22% (23)
- viability at 0.08 µg/mL (multiple myeloma; Homo sapiens, read-out: average % cell survival in vitro, Vincristine 0.08 µg/ml, continuous exposure): 0%
- average % cell survival in vitro (multiple myeloma; Vincristine 0.08 µg/ml, continuous exposure): 0%
- Treated patients, Resistant (ALL; [9]): 10
- Untreated patients, Resistant (ALL; [9]): 6
- Treated patients, Sensitive (ALL; [9]): 1
- Untreated patients, Sensitive (ALL; [9]): 10
- average % cell survival in vitro (ALL; [8]): 44% and 71%
- in vitro activity (in words) (ALL): considerably more sensitive
- resistance in the assay, relapsed (treated) vs untreated patients (in words) (ALL; [6]): significantly more resistant
- % of all specimens tested which were "sensitive" in vitro (< 30% cell survival) (ALL): 56% (25)
- viability at 0.08 µg/mL (CLL [4]): 46%
- viability at 0.08 µg/mL (CML-blast crisis; Homo sapiens, read-out: % cell survival, Vincristine 0.08 μg/ml, continuous exposure): 69%
- % cell survival (CML-blast crisis; Vincristine 0.08 μg/ml, continuous exposure): 71%

SMILES: N[C@@H](Cc1ccc(N(CCCl)CCCl)cc1)C(=O)O [Melphalan, melphalan]
- Treated patients, Resistant (CLL [1]): 11 and 8

SMILES: Nc1ccn([C@@H]2O[C@H](CO)[C@@H](O)[C@@H]2O)c(=O)n1 [Cytarabine, cytarabine]
- activity in the assay at a 1-hour exposure (in words) (tumor cell specimens): not active
- in vitro activity (in words) (ANLL; [7]): active
- % of all specimens tested which were "sensitive" in vitro (< 30% cell survival) (ANLL): 76% (34)
- Treated patients, Resistant (ALL; [10]): 7
- Untreated patients, Resistant (ALL; [10]): 4
- Treated patients, Sensitive (ALL; [10]): 2
- Untreated patients, Sensitive (ALL; [10]): 6
- in vitro activity (in words) (ALL): active
- % of all specimens tested which were "sensitive" in vitro (< 30% cell survival) (ALL): 68% (19)
- resistance in the assay, relapsed (treated) vs untreated patients (in words) (ALL; the higher concentration of cytarabine): significantly more resistant
- % of all specimens tested which were "sensitive" in vitro (< 30% cell survival) (Assorted solid tumors): 3% (31)

SMILES: C[C@@H]1C[C@H]2[C@@H]3CCC4=CC(=O)C=C[C@]4(C)[C@@]3(F)[C@@H](O)C[C@]2(C)[C@@]1(O)C(=O)CO [Dexamethasone, dexamethasone]
- Treated patients, Resistant (CLL [1]; [11]): 13
- Untreated patients, Resistant (CLL [1]; [11]): 18
- Treated patients, Sensitive (CLL [1]; [12]): 2
- Untreated patients, Sensitive (CLL [1]; [12]): 10
- Treated patients, Resistant (CLL [1]; [13]): 10
- Untreated patients, Resistant (CLL [1]; [13]): 15
- Treated patients, Sensitive (CLL [1]; [14]): 2
- Untreated patients, Sensitive (CLL [1]; [14]): 10
- activity in the assay at a 1-hour exposure (in words) (tumor cell specimens): not active
- % of all specimens tested which were "sensitive" in vitro (< 30% cell survival) (ANLL): 7% (41)
- Treated patients, Resistant (ALL; [15]): 7
- Untreated patients, Resistant (ALL; [15]): 6
- Treated patients, Sensitive (ALL; [15]): 4
- Untreated patients, Sensitive (ALL; [15]): 16
- Treated patients, Resistant (ALL; [16]): 7
- Untreated patients, Resistant (ALL; [16]): 5
- Treated patients, Sensitive (ALL; [16]): 3
- Untreated patients, Sensitive (ALL; [16]): 13
- in vitro activity (in words) (ALL): active
- % of all specimens tested which were "sensitive" in vitro (< 30% cell survival) (ALL): 61% (33)
- % cell survival (CML-blast crisis; Dexamethasone 4.0 μg/ml, continuous exposure): 68%
- viability at 4 µg/mL (CML-blast crisis; Homo sapiens, read-out: % cell survival, Dexamethasone 4.0 μg/ml, continuous exposure): 73%
- in vitro activity (in words) (Assorted solid tumors; [7]): not active
- % of all specimens tested which were "sensitive" in vitro (< 30% cell survival) (Assorted solid tumors): 0% (34)

SMILES: O=P1(N(CCCl)CCCl)NCCCO1 (centres unmarked) [cyclophosphamide]
- activity in vitro (in words) (tumor cell specimens): not active in vitro

SMILES: O=NN(CCCl)C(=O)NCCCl [Carmustine, carmustine]
- viability at 11 µg/mL (multiple myeloma; Homo sapiens, 1 h, read-out: average % cell survival in vitro, Carmustine […], 1 hour exposure): 15%
